{"source": "patent US4797479A", "about": "“Nucleoside-phospholipid conjugate” (Toyo Jozo Kabushiki Kaisha, priority 1985, dated 1989)", "key": {"mice": {"test_system": "mice", "test": "Acute toxicity / mortality in mice", "type": "in vivo", "settings": "for mortality: 150 mg/kg body weight in mice"}, "[1]": {"test_system": "Ehrlich ascites carcinoma cells", "test": "Antitumor activity against Ehrlich ascites carcinoma (increase in life span, survivors)", "type": "in vivo, mouse (ICR mice)", "settings": "for 35 days survivals No./treated / ILS (increase in life span): Ehrlich; for ILS (increase in life span): Table 1, 35 days, control 15.14-15.43 days", "method": "Antitumor activities against mouse leukemia P-388 carcinoma and Ehrlich ascites carcinoma are shown in the ensuing examples, according to the following list of specifications:\n2. Animals: BDF1 mice or ICR mice, aged 5-6 weeks, male, 5 mice in a group and 7 control mice.\n3. Tumor cells: P-388 leukemic cells; 1×10^6 /0.2 ml are inoculated intraperitoneally in BDF1 mice. Ehrlich ascites carcinoma cells; 2×10^6 /0.2 ml are inoculated intraperitoneally in ICR mice.\n4. Preparation of samples and administration of drugs: Samples are suspended in Tris-HCl saline solution by sonication. 0.1 ml/10 g body weight is administered. Samples are stored at 4° C. in the dark.\nAdministration: starting two days after inoculation of tumor, once a day for 2-7 days.\n5. Increase in life span (ILS) is calculated by the following equation: [formula] Experimental days: 35 days (partially 30 days) mice living in final days are not calculated in ILS.\nAntitumor activity of this compound has been shown hereinbefore. Furthermore, over 60% ILS was observed when Ehrlich ascites carcinoma, 2×10^6 cells/0.2 ml was inoculated intraperitoneally in mice and 2 days thereafter this compound (30 mg/kg) was administered once a day for 7 days."}, "P-388 leukemic cells": {"test_system": "P-388 leukemic cells", "test": "Antitumor activity against mouse P-388 leukemia (increase in life span, survivors)", "type": "in vivo, mouse (BDF1 mice)", "settings": "for 35 days survivals No./treated / ILS (increase in life span): P-388; for ILS (increase in life span): Table 1, 35 days, control 7.57-7.79 days; for ILS at 30 mg/kg / ILS at 15 mg/kg: P388"}, "[2]": {"test": "Antiviral activity (statement, no method given)", "settings": "statement in words; virus and dose not stated"}, "[3]": {"settings": "Mus musculus, Table 5, P-388 leukemia treatment, 30 mg (× 5) under head mg/kg"}}}
{"smiles": "CCCCCCCCCCCCCCCC(=O)OC[C@H](COP(=O)(O)OC[C@H]1O[C@@H](n2cc(F)c(=O)[nH]c2=O)[C@H](O)[C@@H]1O)OC(=O)CCCCCCCCCCCCCCC", "note": "[Example 1]", "values": [{"measurement": "acute toxicity", "setting": "mice; 150 mg/kg i.p. in mice", "result": "No acute toxicity was observed"}, {"measurement": "35 days survivals No./treated", "setting": "[1]; 15 mg/kg (× 5)", "result": "2/5"}, {"measurement": "ILS (increase in life span)", "setting": "[1]; 15 mg/kg (× 5)", "result": "> 88.0", "unit": "%"}, {"measurement": "35 days survivals No./treated", "setting": "P-388 leukemic cells; 30 mg/kg (× 5)", "result": "0/5"}, {"measurement": "ILS (increase in life span)", "setting": "P-388 leukemic cells; 30 mg/kg (× 5)", "result": 206.3, "unit": "%"}]}
{"smiles": "CCCCCCCCCCCCCCCC(=O)OC[C@H](COP(=O)(O)OC[C@H]1O[C@@H](n2cnc3c(N)ncnc32)[C@@H](O)[C@@H]1O)OC(=O)CCCCCCCCCCCCCCC", "note": "[dipalmitoyl phosphatidyl arabinosyladenine]", "values": [{"measurement": "antiviral activity", "setting": "[2]", "result": "have antiviral activity"}, {"measurement": "mortality", "setting": "mice", "result": "no mortality was observed"}]}
{"smiles": "CCCCCCCCCCCCCCCCCC(=O)OC[C@H](COP(=O)(O)OCC1=C[C@@H](n2cnc3c(N)ncnc32)[C@H](O)[C@@H]1O)OC(=O)CCCCCCCCCCCCCCCCC", "note": "[Example 17]", "values": [{"measurement": "ILS at 30 mg/kg", "setting": "P-388 leukemic cells; [3]", "result": 128, "unit": "%"}]}
{"smiles": "CCCCCCCCCCCCCCCC(=O)OC[C@H](COP(=O)(O)OC[C@H]1O[C@@H](n2cc(F)c(N)nc2=O)[C@@H](O)[C@@H]1O)OC(=O)CCCCCCCCCCCCCCC", "note": "[Example 13]", "values": [{"measurement": "acute toxicity", "setting": "mice; 150 mg/kg body weight, mice", "result": "No acute toxicity"}, {"measurement": "ILS", "setting": "[1]; Ehrlich ascites carcinoma 2×10^6 cells i.p., 30 mg/kg once a day for 7 days from 2 days after inoculation", "result": "over 60%"}, {"measurement": "ILS at 15 mg/kg", "setting": "P-388 leukemic cells; Mus musculus, Table 2, P-388 leukemia, 15 mg/kg (× 5), control 7.57-7.64 days", "result": 152, "unit": "%"}]}
{"smiles": "CCCCCCCC/C=C\\CCCCCCCC(=O)OC[C@H](COP(=O)(O)OC[C@H]1O[C@@H](n2ccc(N)nc2=O)[C@@H](O)[C@@H]1O)OC(=O)CCCCCCC/C=C\\CCCCCCCC", "note": "[Example 14]", "values": [{"measurement": "acute toxicity or mortality", "setting": "mice; 150 mg/kg body weight, mice", "result": "No acute toxicity or mortality"}, {"measurement": "ILS", "setting": "[1]; mice Ehrlich ascites carcinoma, dose not stated", "result": 65.6, "unit": "%"}, {"measurement": "ILS at 30 mg/kg", "setting": "P-388 leukemic cells; Mus musculus, Table 2, P-388 leukemia, 30 mg/kg (× 5), control 7.57-7.64 days", "result": 154, "unit": "%"}]}
{"smiles": "CCCCC/C=C\\C/C=C\\CCCCCCCC(=O)OC[C@H](COP(=O)(O)OC[C@H]1O[C@@H](n2cc(F)c(=O)[nH]c2=O)[C@H](O)[C@@H]1O)OC(=O)CCCCCCC/C=C\\C/C=C\\CCCCC", "note": "[Example 3]", "values": [{"measurement": "acute toxicity", "setting": "mice; 75 mg/kg, mice", "result": "no acute toxicity"}, {"measurement": "ILS at 15 mg/kg", "setting": "P-388 leukemic cells; mouse P-388 leukemia, 15 kg/mg, 5 times administration", "result": 101, "unit": "%"}, {"measurement": "35 days survivals No./treated", "setting": "P-388 leukemic cells; 15 mg/kg (× 5)", "result": "0/5"}, {"measurement": "ILS (increase in life span)", "setting": "P-388 leukemic cells; 15 mg/kg (× 5)", "result": 100.8, "unit": "%"}]}
{"smiles": "CCCCCCCCCCCCCCCCCC(=O)OC[C@H](COP(=O)(O)OC[C@H]1O[C@@H](n2cc(F)c(=O)[nH]c2=O)[C@H](O)[C@@H]1O)OC(=O)CCCCCCCCCCCCCCCCC", "note": "[Example 16]", "values": [{"measurement": "ILS at 30 mg/kg", "setting": "P-388 leukemic cells; [3]", "result": 206, "unit": "%"}]}
{"smiles": "CCCCCCCCCCCCCCCCCC(=O)OC[C@H](COP(=O)(O)OC[C@H]1O[C@@H](n2ccc(N)nc2=O)[C@@H](O)[C@@H]1O)OC(=O)CCCCCCCCCCCCCCCCC", "note": "[Example 19]", "values": [{"measurement": "ILS at 30 mg/kg", "setting": "P-388 leukemic cells; [3]", "result": 160, "unit": "%"}]}
{"smiles": "CCCCCCCCCCCCCCCCCC(=O)OC[C@H](COP(=O)(O)OC[C@H]1O[C@@H](n2cc(F)c(=O)[nH]c2=O)C[C@@H]1O)OC(=O)CCCCCCCCCCCCCCCCC", "note": "[Example 20]", "values": [{"measurement": "ILS at 30 mg/kg", "setting": "P-388 leukemic cells; [3]", "result": 36, "unit": "%"}]}
{"smiles": "CCCCCCCCCCCCCCCC(=O)OC[C@H](COP(=O)(O)OC[C@H]1O[C@@H](n2cc(C)c(=O)[nH]c2=O)[C@@H](O)[C@@H]1O)OC(=O)CCCCCCCCCCCCCCC", "note": "[dipalmitoyl phosphatidyl arabinosylthymine]", "values": [{"measurement": "antiviral activity", "setting": "[2]", "result": "have antiviral activity"}, {"measurement": "mortality", "setting": "mice", "result": "no mortality was observed"}]}
{"smiles": "CCCCCCCCCCCCCCCCCC(=O)OC[C@H](COP(=O)(O)OC[C@H]1O[C@@H](n2cc(F)c(N)nc2=O)[C@@H](O)[C@@H]1O)OC(=O)CCCCCCCCCCCCCCCCC", "note": "[Example 18]", "values": [{"measurement": "ILS at 30 mg/kg", "setting": "P-388 leukemic cells; [3]", "result": 194, "unit": "%"}]}
{"smiles": "CCCCCCCCCCCCCCCC(=O)OC[C@H](COP(=O)(O)OCC1=C[C@@H](n2cnc3c(N)ncnc32)[C@H](O)[C@@H]1O)OC(=O)CCCCCCCCCCCCCCC", "note": "[Example 2]", "values": [{"measurement": "acute toxicity", "setting": "mice; 250 mg/kg body weight", "result": "No acute toxicity was observed"}, {"measurement": "35 days survivals No./treated", "setting": "[1]; 10 mg/kg (× 7)", "result": "2/5"}, {"measurement": "ILS (increase in life span)", "setting": "[1]; 10 mg/kg (× 7)", "result": "> 68.7", "unit": "%"}, {"measurement": "35 days survivals No./treated", "setting": "P-388 leukemic cells; 50 mg/kg (× 3)", "result": "1/5"}, {"measurement": "ILS (increase in life span)", "setting": "P-388 leukemic cells; 50 mg/kg (× 3)", "result": "> 159.3", "unit": "%"}]}
